Reference: patent US10953015B2, “Use of adenosine receptor signaling to regulate P-gp function” (CORNELL UNIVERSITY, priority 2016, dated 2021)

Assays:
Format in all cases: cell-based
P-gp [1] = test: Western blot of P-gp expression in primary human brain endothelial cells; conditions: 1 μM, up to 72 hours
Protocol: (§1) HCMEC-D3 and HBMVEC cells were plated in 12-well plates and were grown until they reached 100% confluency. The media was replaced with fresh media containing 1 μM of Lexiscan® or NECA with proper vehicle control (DMSO) for up to 72 hours. Cells were lysed by lysis buffer […] containing protease inhibitor cocktail and stored for later use (−70° C.). For cytoskeletal fraction analysis, cells were lysed in CSK buffer (100 mM NaCl, 300 mM sucrose, 3 mM MgCl2, 10 mM PIPES, pH 6.8). For brain samples, half of the brain was homogenized and lysed with […] lysis buffer and centrifuged at 17,000 g for 20 minutes and 1:10 diluted samples were used for analysis. Sample was loaded on 7% SDS PAGE at 100 V for 1 hour and transferred to the nitrocellulose paper. It was blocked with 1% BSA and incubated with anti-P-gp antibody (Genetex, 1:2000) overnight. Subsequently, it was washed with TBST and incubated with anti-rabbit secondary antibody (1:2000) for 1 hour. It was washed with TBST and developed with ECL substrate and exposed to x-ray film. Anti-GAPDH or −β-actin antibody was used as loading control. The intensity of band was analyzed with densitometric analysis and plotted as a graph for analysis of time-course effect of AR signaling on P-gp expression.

P-gp [2] = test: Western blot of P-gp expression in primary mouse brain endothelial cells; conditions: 1 μM, up to 72 hours
Protocol: Mice were sacrificed and meninges of brain were removed and ground using a plunger and centrifuged at 3,000 g for 5 minutes. The obtained pellet was dissolved in 18% dextran and centrifuged at 10,000 g for 10 minutes and digested with DMEM containing collagenase, DNAse, and dispase at 37° C. for 75 minutes. The sample was centrifuged for 5 minutes at 3,200 g, and the pellet was washed with warm PBS. The pellet was resuspended in DMEM/F12 with puromycin, heparin, 20% PDS, and 1-glutamine and plated onto the proper plate.
as §1, with “Sample was loaded on 7% SDS PAGE at 100 V for 1 hour and transferred to the nitrocellulose paper. It was blocked with 1% BSA and incubated with anti-P-gp antibody (Genetex, 1:2000) overnight. Subsequently, it was washed with TBST and incubated with anti-rabbit secondary antibody (1:2000) for 1 hour. It was washed with TBST and developed with ECL substrate and exposed to x-ray film. Anti-GAPDH or −β-actin antibody was used as loading control.” left out

P-gp [3] = test: Microscopic (IFA) analysis of Rho123 uptake in primary human brain endothelial cells; conditions: 2.5 μM Rho123, 1 μM agonist, 15 minutes to 24 hours
Protocol: Human brain endothelial cells and primary brain endothelial cells were plated onto 48-well plates until 100% confluence was reached, and media were replaced with fresh media containing Rho123 (2.5 μM) with different concentrations of Lexiscan®, NECA, or PSC833. Reaction was halted by adding 250 μl of ice-cold PBS. Plate was washed with 250 μl of ice-cold PBS 3 times and lysed with lysis buffer. Each sample was analyzed using Synergy Fluometer (Biotek), with excitation at 488 nm and emission at 523 nm. Concentration of Rho123 was analyzed using standard curve created by serial dilution of Rho123. Final concentration of Rho123 was normalized using protein concentration of lysate measured using Bradford assay (Bio-Rad). For microscopic analysis of Rho123 uptake, cells were cultured on coverslip and Rho123 was treated with or without Lexiscan® or NECA with DMSO as control. Reaction was terminated by adding ice-cold PBS and washed with ice-cold PBS 3 times. Cells were fixed with PFA and costained with anti-human P-gp. Cells were visualized with a Zeiss fluorescent microscope and captured with axiovision software. FIG. 4G is a schematic illustration of the Rho123 uptake assay.

CNC(=O)c1cnn(-c2nc(N)c3ncn([C@@H]4O[C@H](CO)[C@@H](O)[C@H]4O)c3n2)c1 [Lexiscan®, 1-[6-amino-9-[(2R,3R,4S,5R)-3,4-dihydroxy-5-(hydroxymethyl)oxolan-2-yl]purin-2-yl]-N-methylpyrazole-4-carboxamide]
P-gp expression (western blot, vs DMSO control) (P-gp [1]): rapid down-modulation of P-gp expression, which began to decrease at 15 minutes and was maintained at a decreased level for up to 4 hours | P-gp expression (western blot, normalized to GAPDH) (P-gp [2]): rapid down-modulation of P-gp beginning at 30 minutes, which was maintained for up to 1 hour | Rho123 accumulation visualized by IFA (P-gp [3]): increased the accumulation of Rho123 beginning at 15 minutes to 1 hour

CCNC(=O)[C@H]1O[C@@H](n2cnc3c(N)ncnc32)[C@H](O)[C@@H]1O [NECA, (2S,3S,4R,5R)-5-(6-aminopurin-9-yl)-N-ethyl-3,4-dihydroxyoxolane-2-carboxamide]
P-gp expression (western blot, vs DMSO control) (P-gp [1]): began to decrease at 30 minutes and was maintained for up to 48 hours and recovered by 72 hours | P-gp expression (western blot, normalized to GAPDH) (P-gp [2]): P-gp expression decreased very rapidly and remained down-modulated for up to 4 hours | Rho123 accumulation visualized by IFA (P-gp [3]): increased Rho123 accumulation at later time points, beginning at 4 hours; this was maintained for up to 24 hours
